From patent publication US9758395B2, “Lysine-based polymer coagulants for use in clarification of process waters” (priority 2011, dated 2017)

Assay: Solubility of lysine HCl in water with temperature
Assay type: physicochemical
Conditions: room temperature (20-25° C.), monohydrochloride
Protocol: The solubilities of lysine were essentially the same with and without the maleic acid added to the water. For example, samples of lysine HCl were added to water in sealed, glass bottles, shaken, and placed in the forced-air oven at various temperatures. These were manually shaken periodically over the next few hours, then left to dissolve overnight. […] At 70° C., the lysine completely dissolved to 60%; at 80° C. to 62%; at 90° C. to 64%; at 100° C. to 66% lysine by weight in water. […] Representative samples of these materials were dried and polymerized at 220° C., 5 to 7 hours, under nitrogen.

Question: With `Cl.NCCCC[C@H](N)C(=O)O` [lysine HCl, L-lysine monohydrochloride] as the molecule, how does the solubility in water (listed as lysine) read?
Answer: Its solubility in water is 50 % by weight.

Question: And the solubility in water?
Answer: The solubility in water was “about 50 % by weight”.
